In patent US9763961B2, “Compositions that modulate the activity of estrogen receptors and estrogen-related receptors and methods for use” (CITY OF HOPE, priority 2005, dated 2017):

How the values were obtained:
[1] = biological target: T1, ERα (Homo sapiens, UniProt P03372); test: Transient transfection luciferase assay with pSG5-ERa and ERE-SV40 reporter in HeLa cells, with 100 pM estradiol; type: cell-based
T1 construct: expressed in transfected cells; host or cells: HeLa
T1 sequence (P03372 1-595): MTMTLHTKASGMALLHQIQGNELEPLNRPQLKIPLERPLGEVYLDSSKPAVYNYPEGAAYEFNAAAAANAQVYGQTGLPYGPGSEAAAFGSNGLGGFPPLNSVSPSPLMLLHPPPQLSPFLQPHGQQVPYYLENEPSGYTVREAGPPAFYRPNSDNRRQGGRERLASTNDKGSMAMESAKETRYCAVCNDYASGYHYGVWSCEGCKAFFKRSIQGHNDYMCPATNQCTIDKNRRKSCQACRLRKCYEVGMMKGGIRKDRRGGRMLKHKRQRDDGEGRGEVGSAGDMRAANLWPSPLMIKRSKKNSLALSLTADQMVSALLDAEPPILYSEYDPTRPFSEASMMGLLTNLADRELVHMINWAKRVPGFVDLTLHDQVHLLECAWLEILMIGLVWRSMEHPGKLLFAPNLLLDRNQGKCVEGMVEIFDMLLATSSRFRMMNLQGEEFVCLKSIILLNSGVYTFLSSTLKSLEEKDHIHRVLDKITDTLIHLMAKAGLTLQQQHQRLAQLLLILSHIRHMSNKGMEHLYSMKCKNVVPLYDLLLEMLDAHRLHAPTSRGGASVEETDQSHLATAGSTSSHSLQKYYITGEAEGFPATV

[2] = biological target: T2, ERRγ (Homo sapiens, UniProt P62508); test: Transient transfection luciferase assay with pSG5-ERRg and SF1-SV40 reporter in HeLa cells; type: cell-based
T2 construct: expressed in transfected cells; host or cells: HeLa
T2 sequence (P62508 1-458): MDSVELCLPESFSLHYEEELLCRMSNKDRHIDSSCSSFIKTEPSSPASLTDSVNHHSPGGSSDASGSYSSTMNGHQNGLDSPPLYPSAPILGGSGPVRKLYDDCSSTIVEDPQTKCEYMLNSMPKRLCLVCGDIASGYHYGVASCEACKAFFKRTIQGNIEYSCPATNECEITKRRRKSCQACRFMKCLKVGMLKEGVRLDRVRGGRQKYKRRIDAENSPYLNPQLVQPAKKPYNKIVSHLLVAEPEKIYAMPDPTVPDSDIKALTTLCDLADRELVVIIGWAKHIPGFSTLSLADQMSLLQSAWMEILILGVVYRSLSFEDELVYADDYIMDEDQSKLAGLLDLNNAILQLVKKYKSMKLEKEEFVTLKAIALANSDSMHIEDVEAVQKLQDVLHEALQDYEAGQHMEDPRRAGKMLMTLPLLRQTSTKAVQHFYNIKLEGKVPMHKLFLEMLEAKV

[3] = biological target: T3, GAL4-human ERRα LBD fusion (Homo sapiens, UniProt P11474); test: Transient transfection luciferase assay, GAL4-human ERRα LBD fusion with Gal4-TK-Luc reporter in HeLa cells; type: cell-based; settings: pM-ERRα LBD, 24 h, mean ± SD
T3 construct: GAL4-human ERRα LBD fusion expression plasmid; expressed in transfected cells; host or cells: HeLa
T3 sequence (P11474 193-421 limits assumed): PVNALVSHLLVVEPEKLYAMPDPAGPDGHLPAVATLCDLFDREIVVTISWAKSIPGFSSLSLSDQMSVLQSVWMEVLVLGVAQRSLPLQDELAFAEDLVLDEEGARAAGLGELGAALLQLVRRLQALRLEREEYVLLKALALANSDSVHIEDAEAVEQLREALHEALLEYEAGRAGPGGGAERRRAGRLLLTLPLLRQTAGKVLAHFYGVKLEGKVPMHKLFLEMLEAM
Procedure: Referring to FIG. 2, we have also prepared GAL4-ERRα expression plasmid and luciferase reporter plasmids with GAL4 response element. This is a more sensitive assay method than that using pSG5-ERRα and ERE luciferase reporter plasmids.
(§1) To evaluate the functional significance of the interaction of chalcones with ERRα, we incubated these compounds with HeLa cells which were transiently transfected with human ERRα expression plasmid and a luciferase reporter plasmid containing SF1 binding site. […] In order to confirm the results above, HeLa cells were transiently transfected with GAL4-human ERRα LBD fusion expression plasmid and a luciferase reporter plasmid containing GAL4 binding site. […] Most of the compounds, however, have similar IC50 value, and have a similar potency.
(§2) Referring to FIG. 2, HeLa cells were cotransfected with pM-ERRα LBD (0.5 μg) and luciferase reporter plasmid containing GAL4 binding site and TK promoter (0.25 μg). The transfected cells were incubated with Compound No. 1-9 for 24 h. After cells were washed with 1× PBS, luciferase activity was measured. Values represent the mean±SD.

[4] = biological target: T4, ERRβ (Homo sapiens, UniProt O95718); test: Transient transfection luciferase assay with pSG5-ERRb and SF1-SV40 reporter in HeLa cells; type: cell-based
T4 construct: expressed in transfected cells; host or cells: HeLa
T4 sequence (O95718 1-433): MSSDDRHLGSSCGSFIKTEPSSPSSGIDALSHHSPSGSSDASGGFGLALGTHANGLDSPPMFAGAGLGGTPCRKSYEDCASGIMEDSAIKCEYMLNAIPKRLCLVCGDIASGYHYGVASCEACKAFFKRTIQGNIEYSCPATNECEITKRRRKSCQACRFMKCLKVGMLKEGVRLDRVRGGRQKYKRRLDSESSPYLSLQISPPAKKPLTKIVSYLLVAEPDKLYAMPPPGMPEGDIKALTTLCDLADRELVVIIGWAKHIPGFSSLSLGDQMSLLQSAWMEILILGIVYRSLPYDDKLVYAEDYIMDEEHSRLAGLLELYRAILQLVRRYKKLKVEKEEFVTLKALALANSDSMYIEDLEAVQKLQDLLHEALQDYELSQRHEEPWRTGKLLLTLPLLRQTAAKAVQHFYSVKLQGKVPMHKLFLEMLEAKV

[5] = biological target: T5, ERβ (Homo sapiens, UniProt Q92731); test: Transient transfection luciferase assay with pCI-ERb and ERE-SV40 reporter in HeLa cells, with 100 pM estradiol; type: cell-based
T5 construct: expressed in transfected cells; host or cells: HeLa

[6] = biological target: T6, human ERRα-1 (Homo sapiens, UniProt P11474); test: Transient transfection luciferase assay, full length human ERRα with SF1-SV40-Luc reporter in HeLa cells; type: cell-based; settings: HeLa cells
T6 construct: expressed in transfected cells; host or cells: HeLa
T6 sequence (P11474 1-423): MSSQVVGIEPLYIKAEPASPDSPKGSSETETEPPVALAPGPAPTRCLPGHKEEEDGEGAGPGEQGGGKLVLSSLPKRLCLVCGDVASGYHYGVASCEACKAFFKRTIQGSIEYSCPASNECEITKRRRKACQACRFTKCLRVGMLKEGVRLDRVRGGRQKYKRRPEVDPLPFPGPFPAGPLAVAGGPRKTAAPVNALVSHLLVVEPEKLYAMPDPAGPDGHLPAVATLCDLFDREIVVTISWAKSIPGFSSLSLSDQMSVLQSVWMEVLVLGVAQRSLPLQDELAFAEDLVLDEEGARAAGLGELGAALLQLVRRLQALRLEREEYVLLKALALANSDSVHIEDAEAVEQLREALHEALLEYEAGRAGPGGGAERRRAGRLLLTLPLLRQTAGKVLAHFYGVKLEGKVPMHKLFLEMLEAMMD
Procedure: HeLa cells were cultured in MEM Earle's salts medium supplemented with 5% charcoal/dextran-treated fetal bovine serum. Cells were then divided and cultured in 6-well plates until 80% confluence was achieved. The cells were next transfected with 4 μg Lipofectin. An equal amount of total DNA was used in all transfections by including appropriate amounts of the empty vector, pSG5, in addition to specific amounts of pSG5-ERRα and luciferase reporter plasmids (ERRE (ERRα recognizes an ERE half site)-containing reporter and aromatase promoter I.3-containing reporter). Following an overnight incubation, the medium containing Lipofectin and DNA was removed, and the cells cultured in a growth medium containing 5% charcoal/dextran-treated fetal bovine serum with or without ligands. After a 24-hour incubation, the cells was harvested from the plates by scraping, and the luciferase activities in the cell lysates (with the same amounts of protein) was measured according to the manufacturer's instructions (Promega). All experiments were performed in triplicate.
as §1
as §2, with “1,” for “2,”, “pSG5-ERRα” for “pM-ERRα LBD”, “SF1” for “GAL4”, “SV40” for “TK”

[7] = biological target: T4, ERRβ; test: Relative luciferase activity for ERRβ (FIG. 8); type: cell-based
[8] = biological target: T2, ERRγ; test: Relative luciferase activity for ERRγ (FIG. 8); type: cell-based
[9] = biological target: T7, ERRα (Homo sapiens, UniProt P11474); test: Relative luciferase activity for ERRα (FIG. 8); type: cell-based; set-up: endogenous in cells; host or cells: SK-BR-3
T7 sequence (P11474 1-423): T6 sequence (P11474 1-423)

[10] = test system: ER; settings: cited from earlier work
[11] = HeLa cells, in the presence of 100 pM of estradiol, 24 h
[12] = HeLa cells, 24 h, average of at least two experiments

T5 sequence (Q92731 whole entry, species assumed): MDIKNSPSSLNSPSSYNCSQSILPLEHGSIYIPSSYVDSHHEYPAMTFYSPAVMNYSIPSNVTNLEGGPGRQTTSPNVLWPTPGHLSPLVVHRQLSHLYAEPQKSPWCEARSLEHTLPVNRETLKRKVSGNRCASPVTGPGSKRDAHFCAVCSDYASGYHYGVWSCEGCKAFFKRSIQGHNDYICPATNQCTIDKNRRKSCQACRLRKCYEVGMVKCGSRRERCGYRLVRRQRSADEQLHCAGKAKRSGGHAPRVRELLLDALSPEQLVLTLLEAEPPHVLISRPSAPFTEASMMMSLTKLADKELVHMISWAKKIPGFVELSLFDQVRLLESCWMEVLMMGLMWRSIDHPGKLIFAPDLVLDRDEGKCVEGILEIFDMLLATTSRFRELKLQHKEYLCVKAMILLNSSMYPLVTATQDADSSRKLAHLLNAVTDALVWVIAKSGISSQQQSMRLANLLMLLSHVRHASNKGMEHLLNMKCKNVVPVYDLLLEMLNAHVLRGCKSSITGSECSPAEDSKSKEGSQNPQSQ

COc1ccc(C(=O)/C=C/c2ccccc2OC)c(O)c1 [7-2]
IC50 [1, 11]: 7.8 µM | Antagonistic properties on ERa (in words) ([1]; transient transfection): showed antagonistic properties | IC50 [2, 12]: 8 µM | Antagonistic properties on ERRg (in words) ([2]; transient transfection): showed antagonistic properties | IC50 [3]: 2e+06 ± 700000 pM | IC50 [4, 12]: 6.7 µM | Antagonistic properties on ERRb (in words) ([4]; transient transfection): showed antagonistic properties | IC50 [5, 11]: 15 µM | Antagonistic properties on ERb (in words) ([5]; transient transfection): showed antagonistic properties | Antagonism of constitutive activity of ERRα (in words) ([6]; SF1 binding site reporter, FIG. 1): antagonists of ERRα | IC50 ([6]; pSG5-ERRα, 24 h, mean ± SD): 8.3 ± 0.4 µM

O=C(/C=C/c1ccc(O)cc1)c1ccc(O)cc1O [Compound No. 3-15, 4,2′,4′-trihydroxychalcone]
Agonist activity on ERRβ [7]: agonist of all three forms of ERRs | Agonist activity on ERRγ [8]: agonist of all three forms of ERRs | Agonist activity on ERRα [9]: agonist of all three forms of ERRs

CC/C(=C(/c1ccc(O)cc1)c1ccc(OCCN(C)C)cc1)c1ccccc1 [E-4-OHT]
Affinity for ER relative to Z-4-OHT [10]: about 5%
